Tests used:
[1] = log P by HPLC on reversed-phase C18, LC-MS, pH 2.7, formic acid (HCOOH); type: physicochemical; conditions: reversed-phase C18 HPLC column; HPLC C18, pH 2.7, 0.1% aqueous formic acid/acetonitrile
Experimental: The log P values reported in the table above and in the preparation examples were determined in accordance with EEC Directive 79/831 Annex V.A8 by HPLC (High Performance Liquid Chromatography) on reversed-phase columns (C18), with the following methods: ^[b] The determination is made by LC-MS in the acid range at pH 2.7 with 0.1% aqueous formic acid and acetonitrile (containing 0.1% formic acid) as eluents; linear gradient from 10% acetonitrile to 95% acetonitrile. Calibration took place with unbranched alkan-2-ones (having 3 to 16 carbon atoms) of known log P values (log P values determined from the retention times by linear interpolation between two successive alkanones).

Boophilus microplus = Boophilus microplus test (BOOPMI injection); type: in vivo; conditions: Rhipicephalus microplus, 168 h; 20 μg/animal, injection into abdomen, after 7 days; read-out: activity (no fertile eggs laid)
Experimental: Solvent: Dimethyl Sulphoxide An appropriate preparation of active compound is prepared by mixing 10 mg of active compound with 0.5 ml of solvent and diluting the concentrate with solvent to the desired concentration. The solution of active compound is injected into the abdomen (Boophilus microplus) and the animals are transferred into dishes and kept in a controlled atmosphere. The activity is assessed on the basis of deposition of fertile eggs. After 7 days, the effect in % is determined. Here, 100% means that none of the ticks has laid fertile eggs.

[2] = tested on: greenhouse red spidermite (Tetranychus urticae); experiment: Tetranychus test; OP resistant (TETRUR spray treatment), Example 3; type: in vivo; conditions: foliar, 144 h, spray on bean leaf discs, after 6 days, read-out: effect (mites killed)
Experimental: Solvents: 78.0 parts by weight of acetone • • 1.5 parts by weight of dimethylformamide Emulsifier: 0.5 part by weight of alkylaryl polyglycol ether An appropriate preparation of active compound is prepared by mixing 1 part by weight of active compound with the stated amounts of solvent and emulsifier and diluting the concentrate with emulsifier-containing water to the desired concentration. Leaf discs of bean (Phaseolus vulgaris) infested by all stages of the greenhouse red spidermite (Tetranychus urticae) are sprayed with a preparation of active compound at the desired concentration. After 6 days, the effect in % is determined. Here, 100% means that all of the mites have been killed; 0% means that no mites have been killed.

[3] = tested on: larvae of the mustard beetle (Phaedon cochleariae); experiment: Phaedon test (PHAECO spray treatment); type: in vivo; conditions: foliar, 168 h, spray on Chinese cabbage leaf discs, after 7 days, read-out: effect (beetle larvae killed)
Experimental: Solvents: 78.0 parts by weight of acetone • • 1.5 parts by weight of dimethylformamide Emulsifier: 0.5 part by weight of alkylaryl polyglycol ether An appropriate preparation of active compound is prepared by mixing 1 part by weight of active compound with the stated amounts of solvent and emulsifier and diluting the concentrate with emulsifier-containing water to the desired concentration. Leaf discs of Chinese cabbage (Brassica pekinensis) are sprayed with a preparation of active compound at the desired concentration and, after they have dried, are populated with larvae of the mustard beetle (Phaedon cochleariae). After 7 days, the effect in % is determined. Here, 100% means that all of the beetle larvae have been killed; 0% means that no beetle larvae have been killed.

SMILES: Cc1cc(C)c([S+]([O-])CC(F)F)cc1-n1cnc(C(F)F)n1 (stereo not shown) [I-A-3]
- chromatographic logP [1]: 1.9
- pest or weed control at 0.02 mg (Boophilus microplus): 100%
- pest or weed control at 100 g/ha [2]: 100%

SMILES: Cc1cc(F)c(-n2cnc(C(F)F)n2)cc1SCC(F)F [I-A-6]
- chromatographic logP [1]: 2.94
- pest or weed control at 500 g/ha [3]: 100%
- pest or weed control at 100 g/ha [2]: 100%

SMILES: Cc1cc(C)c(-n2cnc(C(F)(F)C(F)(F)F)n2)cc1SCC(F)F [I-A-7]
- chromatographic logP [1]: 4.22
- pest or weed control at 0.02 mg (Boophilus microplus): 100%
- pest or weed control at 100 g/ha [2]: 100%

SMILES: Cc1cc(C)c([S+]([O-])CC(F)F)cc1-n1cnc(C(F)(F)C(F)(F)F)n1 (stereo not shown) [I-A-8]
- chromatographic logP [1]: 2.95
- pest or weed control at 0.02 mg (Boophilus microplus): 100%
- pest or weed control at 100 g/ha [2]: 100%

SMILES: Cc1cc(C)c([S+]([O-])CC2CC2)cc1-n1cnc(C(F)(F)C(F)(F)F)n1 (stereo not shown) [I-A-11]
- chromatographic logP [1]: 3.11
- pest or weed control at 0.02 mg (Boophilus microplus): 100%
- pest or weed control at 100 g/ha [2]: 100%

SMILES: Cc1cc(C)c(-n2cnc(C(F)F)n2)cc1SCC1CC1 [I-A-13]
- chromatographic logP [1]: 3.85
- pest or weed control at 100 g/ha [2]: 100%

SMILES: Cc1cc(C)c(-n2cnc(C(F)(F)C(F)(F)F)n2)cc1SCC1CC1 [I-A-14]
- chromatographic logP [1]: 5.11
- pest or weed control at 100 g/ha [2]: 100%

SMILES: Cc1cc(C)c([S+]([O-])CCC(F)(F)F)cc1-n1cnc(C(F)F)n1 (stereo not shown) [I-A-17]
- chromatographic logP [1]: 2.28
- pest or weed control at 0.02 mg (Boophilus microplus): 100%
- pest or weed control at 100 g/ha [2]: 100%

SMILES: CSc1cc(-n2cnc(C(F)F)n2)c(C)cc1C [I-A-18]
- chromatographic logP [1]: 3.01
- pest or weed control at 500 g/ha [2]: 100%

SMILES: Cc1cc(C)c(-n2cnc(C(F)F)n2)cc1SCC(F)(F)C(F)F [I-A-19]
- chromatographic logP [1]: 3.37
- pest or weed control at 100 g/ha [2]: 100%

SMILES: Cc1cc(C)c(-n2cnc(C(F)F)n2)cc1SCC#N [I-A-20]
- chromatographic logP [1]: 2.47
- pest or weed control at 500 g/ha [2]: 100%

SMILES: Cc1cc(C)c([S+](C)[O-])cc1-n1cnc(C(F)F)n1 (stereo not shown) [I-A-21]
- chromatographic logP [1]: 1.46
- pest or weed control at 500 g/ha [2]: 80%

SMILES: Cc1cc(F)c(-n2cnc(C(F)F)n2)cc1[S+](C)[O-] (stereo not shown) [I-A-22]
- chromatographic logP [1]: 1.37
- pest or weed control at 500 g/ha [2]: 80%

SMILES: Cc1cc(F)c(-n2cnc(C(F)F)n2)cc1[S+]([O-])CC(F)F (stereo not shown) [I-A-23]
- chromatographic logP [1]: 1.81
- pest or weed control at 500 g/ha [3]: 100%
- pest or weed control at 500 g/ha [2]: 100%

SMILES: Cc1cc(F)c(-n2cnc(C(F)F)n2)cc1SCC#N [I-A-24]
- chromatographic logP [1]: 2.31
- pest or weed control at 500 g/ha [2]: 100%

SMILES: Cc1cc(C)c([S+]([O-])CC#N)cc1-n1cnc(C(F)F)n1 (stereo not shown) [I-A-25]
- chromatographic logP [1]: 1.49
- pest or weed control at 500 g/ha [2]: 100%

SMILES: Cc1cc(F)c(-n2cnc(C(F)F)n2)cc1[S+]([O-])CC#N (stereo not shown) [I-A-26]
- chromatographic logP [1]: 1.4
- pest or weed control at 500 g/ha [2]: 100%

SMILES: Cc1cc(C)c(-n2cnc(C(F)(F)C(F)(F)F)n2)cc1SCC(F)(F)F [I-A-28]
- chromatographic logP [1]: 4.49
- pest or weed control at 100 g/ha [2]: 100%

SMILES: Cc1cc(F)c(-n2cnc(C(F)F)n2)cc1[S+]([O-])CC1CC1 (stereo not shown) [I-A-29]
- chromatographic logP [1]: 1.96
- pest or weed control at 500 g/ha [2]: 100%

SMILES: Cc1cc(C)c([S+]([O-])CC(F)(F)C(F)F)cc1-n1cnc(C(F)F)n1 (stereo not shown) [I-A-32]
- chromatographic logP [1]: 2.35
- pest or weed control at 100 g/ha [2]: 100%

SMILES: Cc1cc(C)c([S+]([O-])CC2CC2)cc1-n1cnc(C(F)F)n1 (stereo not shown) [I-A-33]
- chromatographic logP [1]: 2.05
- pest or weed control at 500 g/ha [2]: 100%

SMILES: Cc1cc(C)c(-n2cnc(C(F)(F)C(F)(F)F)n2)cc1SCC(C)C [I-A-34]
- chromatographic logP [1]: 5.58
- pest or weed control at 100 g/ha [2]: 100%

SMILES: Cc1cc(C)c([S+]([O-])CC(F)(F)C(F)(F)F)cc1-n1cnc(C(F)F)n1 (stereo not shown) [I-A-35]
- chromatographic logP [1]: 2.72
- pest or weed control at 100 g/ha [2]: 100%

SMILES: Cc1cc(C)c(-n2cnc(C(F)F)n2)cc1SCCC(F)(F)F [I-A-36]
- chromatographic logP [1]: 3.68
- pest or weed control at 0.02 mg (Boophilus microplus): 100%
- pest or weed control at 100 g/ha [2]: 100%

SMILES: Cc1cc(C)c(-n2cnc(C(F)F)n2)cc1SCC(F)(F)C(F)(F)F [I-A-37]
- chromatographic logP [1]: 3.86
- pest or weed control at 100 g/ha [2]: 100%

SMILES: CSc1cc(-n2cnc(C(F)F)n2)c(F)cc1C [I-A-38]
- chromatographic logP [1]: 2.93
- pest or weed control at 500 g/ha [2]: 100%

SMILES: Cc1cc(C)c([S+]([O-])CC(C)C)cc1-n1cnc(C(F)(F)C(F)(F)F)n1 (stereo not shown) [I-A-39]
- chromatographic logP [1]: 3.46
- pest or weed control at 0.02 mg (Boophilus microplus): 100%
- pest or weed control at 100 g/ha [2]: 100%

SMILES: Cc1cc(C)c(-n2cnc(C(F)F)n2)cc1SSc1cc(-n2cnc(C(F)F)n2)c(C)cc1C [II-A-1, 1,1′-[Disulphanediylbis(4,6-dimethylbenzene-3,1-diyl)]bis[3-(difluoromethyl)-1H-1,2,4-triazole]]
- chromatographic logP [1]: 4.45

SMILES: Cc1cc(F)c(-n2cnc(C(F)F)n2)cc1SSc1cc(-n2cnc(C(F)F)n2)c(F)cc1C [II-A-2]
- chromatographic logP [1]: 4.33

SMILES: Cc1cc(Cl)c(-n2cnc(C(F)F)n2)cc1SSc1cc(-n2cnc(C(F)F)n2)c(Cl)cc1C [II-A-3]
- chromatographic logP [1]: 4.53

SMILES: Cc1cc(C)c(-n2cnc(C(F)(F)C(F)(F)F)n2)cc1SSc1cc(-n2cnc(C(F)(F)C(F)(F)F)n2)c(C)cc1C [II-A-4]
- chromatographic logP [1]: 6.36

SMILES: Cc1cc(C)c(-n2cnc(C(F)(F)C(F)F)n2)cc1SSc1cc(-n2cnc(C(F)(F)C(F)F)n2)c(C)cc1C [II-A-5]
- chromatographic logP [1]: 5.22

SMILES: Cc1cc(C)c(-n2cnc(C(F)(F)C(F)(F)Cl)n2)cc1SSc1cc(-n2cnc(C(F)(F)C(F)(F)Cl)n2)c(C)cc1C [II-A-6]
- chromatographic logP [1]: 6.62

SMILES: Cc1ccc(-n2cnc(C(F)F)n2)cc1SSc1cc(-n2cnc(C(F)F)n2)ccc1C [II-A-7]
- chromatographic logP [1]: 4.19

SMILES: Cc1ccc(-n2cnc(C(F)(F)C(F)(F)Cl)n2)c(C)c1 [IV-A-1]
- chromatographic logP [1]: 3.88

SMILES: Cc1ccc(-n2cnc(C(F)F)n2)c(C)c1 [IV-A-2, 3-(Difluoromethyl)-1-(2,4-dimethylphenyl)-1H-1,2,4-triazole]
- chromatographic logP [1]: 2.43
- pest or weed control at 500 g/ha [2]: 80%

SMILES: Cc1ccc(-n2cnc(C(F)F)n2)c(F)c1 [IV-A-3]
- chromatographic logP [1]: 2.31
- pest or weed control at 500 g/ha [2]: 90%

SMILES: Cc1ccc(-n2cnc(C(F)F)n2)c(Cl)c1 [IV-A-4]
- chromatographic logP [1]: 2.46

SMILES: Cc1ccc(-n2cnc(C(F)(F)C(F)(F)F)n2)c(C)c1 [IV-A-5]
- chromatographic logP [1]: 3.78

SMILES: Cc1ccc(-n2cnc(C(F)(F)C(F)F)n2)c(C)c1 [IV-A-6]
- chromatographic logP [1]: 3.08

SMILES: Cc1ccc(-n2cnc(C(F)F)n2)cc1 [IV-A-7]
- chromatographic logP [1]: 2.26

SMILES: Cc1ccc(NNC(=O)C(F)(F)C(F)(F)Cl)c(C)c1 [V-1]
- chromatographic logP [1]: 2.96
- pest or weed control at 500 g/ha [2]: 90%

SMILES: Cc1ccc(NNC(=O)C(F)(F)C(F)(F)F)c(C)c1 [V-2]
- chromatographic logP [1]: 2.91

SMILES: Cc1ccc(NNC(=O)C(F)(F)C(F)F)c(C)c1 [V-3]
- chromatographic logP [1]: 2.46

SMILES: Cc1ccc(NNC(=O)C(F)F)cc1 [V-4]
- chromatographic logP [1]: 1.46

SMILES: Cc1ccc(NNC(=O)C(F)F)c(F)c1 [V-5]
- chromatographic logP [1]: 1.66

SMILES: Cc1ccc(N/N=C(\N)C(F)F)c(Cl)c1 [X-1]
- chromatographic logP [1]: 2.5

SMILES: Cc1ccc(N/N=C(\N)C(F)(F)C(F)(F)F)c(C)c1 [X-2]
- chromatographic logP [1]: 3.65

SMILES: N/C(=N\Nc1ccc(F)cc1)C(F)F [X-3]
- chromatographic logP [1]: 1.34

Reference: patent US8632767B2, “3-[1-(3-haloalkyl)triazolyl]phenyl sulphide derivatives as acaricides and insecticides” (Bayer Intellectual Property GmbH, priority 2009, dated 2014)
